Laboratory results reported in PMC5445929 (Journal of fluorine chemistry, 2016).
Where two headings read alike, the source gives them in different places.

How the values were obtained:
[1] = metabolic stability against liver microsomes; assay type: in vitro ADME; settings: 4 h at 37 °C, LC–MS/MS
[2] = metabolic stability against liver microsomes; assay type: in vitro ADME; settings: 4 h at 37 °C, LC–MS/MS; remark: listed apart in the source
[3] = metabolic stability against liver microsomes; assay type: in vitro ADME, mouse; settings: murine microsomes, 4 h at 37 °C, LC–MS/MS
M. tuberculosis H37Rv = settings: cited from earlier work
M. tuberculosis Erdman = settings: cited from earlier work

Compound | % metabolic clearance human [1] [%] | % metabolic clearance rat [2] [%] | % metabolic clearance mouse [3] [%] | MIC (μg/mL) H37Rv (M. tuberculosis H37Rv) [µg/mL] | log10 CFU Spleen (M. tuberculosis Erdman; route IP) [n = 5 log10 CFU] | Δ log10 CFU Lungs (test vs control group means) (M. tuberculosis Erdman; route IP) [log10 CFU] | Δ log10 CFU Spleen (test vs control group means) (M. tuberculosis Erdman; route IP) [log10 CFU] | log10 CFU Spleen (M. tuberculosis Erdman; route PO) [n = 5 log10 CFU] | Δ log10 CFU Lungs (test vs control group means) (M. tuberculosis Erdman; route PO) [log10 CFU] | Δ log10 CFU Spleen (test vs control group means) (M. tuberculosis Erdman; route PO) [log10 CFU] | log10 CFU Lungs (M. tuberculosis Erdman; route PO, test compounds 50 mg/kg b.i.d., day 5-15 post infection) [n = 5 log10 CFU]
2-cyclohexyl-5-dimethylamino-6-(4-trifluorimethoxy)benzamido-1,3-benzoxazole [Compound 12] | 56 | 22 | 71 | 6.25 |  |  |  |  |  |  | 
NNC(=O)c1ccncc1 [INH, isoniazid] |  |  |  |  | 0 ± 0 | −6.57 | −4.96 | 0 ± 0 | −6.31 | −3.89 | 0 ± 0
